Laboratory results as given in ChEMBL document CHEMBL4393726, “Distinct biological responses of metastatic castration resistant prostate cancer cells upon exposure to G-quadruplex interacting naphthalenediimide derivatives” (Eur J Med Chem, 2019).
Activity calls are given as the source filed them. No cut-off for these calls is given here.

How the values were obtained:
Quadruplex DNA [1] = assay: Stabilization of synthetic 5'Dabcyl/3'-FAM-labeled EGFR 272 G4 quadruplex DNA assessed as change in melting temperature by fluorescence melting assay; format: nucleic-acid assay
PC-3 [2] = assay: Effect on ephithelial-mesenchymal transition in human PC3 cell assessed as decrease in E-cadherin expression at 48 hrs 0.5 times IC50 treated for every week for 56 days by Western immunoblotting analysis; format: functional, cell-based
DU-145 [3] = assay: Down regulation of EGFR protein expression in human DU145 cells at 48 hrs IC50 incubated for 96 hrs by Western immunoblot assay relative to control; format: functional
Quadruplex DNA [4] = assay: Binding affinity to synthetic 5'Dabcyl/3'-FAM-labeled EGFR 272 G4 quadruplex DNA folded DNA assessed as entropy change by isothermal titration calorimetry; format: nucleic-acid assay
DU-145 [5] = assay: Down regulation of EGFR protein expression in human DU145 cells after 24 hrs by Western immunoblot assay; format: functional, cell-based
PC-3 [6] = assay: Effect on AKT basal level in homozygous PTEN-deficient human PC3 cells assessed as reduction in AKT basal level at 48 hr IC50 incubated for 48 to 96 hrs by Western immunoblot assay; format: ADME, cell-based
PC-3 [7] = assay: Cytotoxicity against human PC3 cells assessed as decrease in cell viability after 48 hrs by MTS assay; format: functional, cell-based; conditions: PC-3, 48 h
PC-3 [8] = assay: Cytotoxicity against human PC3 cells assessed as decrease in cell viability after 72 hrs by MTS assay; format: functional, cell-based; conditions: PC-3, 72 h
[9] = target: RAC-alpha serine/threonine-protein kinase (Homo sapiens) (UniProt P31749); assay: Effect on AKT phosphorylation at S473 in heterozygous PTEN-positive human DU145 cells as reduction in AKT phosphorylation at S473 residue at 48 hr IC50 incubated for 48 hrs by Western immunoblot assay
Sequence of RAC-alpha serine/threonine-protein kinase (Homo sapiens) (P31749 whole entry): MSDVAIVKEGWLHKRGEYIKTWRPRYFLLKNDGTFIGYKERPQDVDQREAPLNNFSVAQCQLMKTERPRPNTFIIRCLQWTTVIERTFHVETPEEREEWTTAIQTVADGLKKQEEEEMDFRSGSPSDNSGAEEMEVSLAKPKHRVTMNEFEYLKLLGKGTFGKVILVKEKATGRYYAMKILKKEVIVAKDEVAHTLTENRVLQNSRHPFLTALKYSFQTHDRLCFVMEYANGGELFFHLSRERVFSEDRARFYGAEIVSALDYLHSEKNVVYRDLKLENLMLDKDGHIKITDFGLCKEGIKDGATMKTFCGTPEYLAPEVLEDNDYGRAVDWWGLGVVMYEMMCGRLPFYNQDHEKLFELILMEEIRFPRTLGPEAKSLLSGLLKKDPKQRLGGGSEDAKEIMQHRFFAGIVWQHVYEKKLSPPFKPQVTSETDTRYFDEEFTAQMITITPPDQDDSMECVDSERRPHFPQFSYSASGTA

Homo sapiens [10] = species on record: Homo sapiens; assay: Effect on telomere DNA in human PC3 cells assessed as telomere DNA length at 48 hrs 0.5 times IC50 treated for every week for 56 days by pulsed field electrophoresis/southern blot based densitometric analysis (reference value: 4.6 +/- 0.3 kb); format: cell-based
DU-145 [11] = assay: Effect on AKT basal level in heterozygous PTEN-positive human DU145 cells assessed as reduction in AKT basal level at 48 hrs IC50 incubated for 48 hrs by Western immunoblot assay; format: ADME, cell-based; conditions: du-145, 48 h
PC-3 [12] = assay: Effect on ephithelial-mesenchymal transition in human PC3 cell assessed as increase in vimentin at 48 hrs 0.5 times IC50 treated for every week for 56 days by Western immunoblotting analysis; format: functional, cell-based
[13] = target: T1, Mitogen-activated protein kinase; ERK1/ERK2 (Homo sapiens) (UniProt P27361+P28482); assay: Effect on ERK 1/2 phosphorylation at T202/Y204 residues in human DU145 cells assessed as increase in ERK1/2 phosphorylation at T202/Y204 at 48 hrs IC50 incubated for 48 to 96 hrs by Western immunoblot assay; format: cell-based
T1 sequence (P27361 whole entry, looked up): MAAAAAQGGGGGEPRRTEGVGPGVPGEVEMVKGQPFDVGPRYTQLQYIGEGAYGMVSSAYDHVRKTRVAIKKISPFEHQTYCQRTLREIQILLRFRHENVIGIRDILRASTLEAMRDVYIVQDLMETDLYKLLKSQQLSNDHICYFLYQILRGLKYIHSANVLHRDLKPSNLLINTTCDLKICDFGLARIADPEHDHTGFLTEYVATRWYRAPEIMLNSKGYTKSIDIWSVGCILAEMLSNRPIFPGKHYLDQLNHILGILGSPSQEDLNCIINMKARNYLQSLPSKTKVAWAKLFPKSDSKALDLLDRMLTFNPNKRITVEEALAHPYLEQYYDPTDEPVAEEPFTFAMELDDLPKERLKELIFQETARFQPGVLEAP
T1 sequence (P28482 whole entry, looked up): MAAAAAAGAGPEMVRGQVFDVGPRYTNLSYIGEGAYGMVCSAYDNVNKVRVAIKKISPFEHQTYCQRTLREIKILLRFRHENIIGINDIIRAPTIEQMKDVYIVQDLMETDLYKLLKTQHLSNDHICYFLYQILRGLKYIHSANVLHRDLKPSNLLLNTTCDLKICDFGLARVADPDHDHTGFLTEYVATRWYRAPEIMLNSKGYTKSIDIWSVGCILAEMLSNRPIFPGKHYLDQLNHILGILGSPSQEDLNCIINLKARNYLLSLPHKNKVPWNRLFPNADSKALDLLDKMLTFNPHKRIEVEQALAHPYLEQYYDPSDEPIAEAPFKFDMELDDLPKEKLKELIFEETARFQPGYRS

Quadruplex DNA [14] = assay: Stabilization of synthetic 5'Dabcyl/3'-FAM-labeled telomeric 22 G4 quadruplex DNA assessed as change in melting temperature by fluorescence melting assay; format: nucleic-acid assay
[15] = target: RAC-alpha serine/threonine-protein kinase (Homo sapiens) (UniProt P31749); assay: Effect on AKT phosphorylation at S473 homozygous PTEN-deficient human PC3 cells as reduction in AKT phosphorylation at S473 residue at 48 hr IC50 incubated for 48 to 96 hrs by Western immunoblot assay
DU-145 [16] = assay: Effect on human DU145 cell growth assessed as change in cell growth at 72 hrs 0.5 times IC50 treated for every week for 56 days by cell counter based trypan blue exclusion assay; format: functional
PC-3 [17] = assay: Down regulation of EGFR protein expression in human PC3 cells after 24 hrs by Western immunoblot assay; format: functional, cell-based
PC-3 [18] = assay: Effect on human PC3 cell growth assessed as reduction in cell growth at 72 hrs 0.5 times IC50 treated for every week for 56 days by cell counter based trypan blue exclusion assay; format: functional
Homo sapiens [19] = species on record: Homo sapiens; assay: Effect on telomere DNA in human PC3 cell assessed as increase in telomere DNA length at 48 hrs 0.5 times IC50 treated for every week for 56 days by pulsed field electrophoresis/southern blot based densitometric analysis
Quadruplex DNA [20] = assay: Binding affinity to synthetic 5'Dabcyl/3'-FAM-labeled telomeric 22 G4 quadruplex DNA folded DNA assessed as enthalpy change by isothermal titration calorimetry; format: nucleic-acid assay
[21] = target: T1, Mitogen-activated protein kinase; ERK1/ERK2 (Homo sapiens); assay: Effect on ERK 1/2 phosphorylation at T202/Y204 residues in human PC3 cells assessed as decrease in ERK1/2 phosphorylation at T202/Y204 at 48 hrs IC50 incubated for 48 hrs by Western immunoblot assay; format: cell-based
DU-145 [22] = assay: Effect on ERK 1 basal level in human DU145 cells assessed as reduction in ERK 1 basal level at 48 hrs IC50 incubated for 48 hrs by Western immunoblot assay; format: ADME, cell-based; conditions: du-145, 48 h
PC-3 [23] = assay: Effect on human PC3 cell growth assessed as population doubling at 48 hr IC50 incubated for 96 hrs by cell counter based trypan blue exclusion assay (reference value: 2.6); format: functional
PC-3 [24] = assay: Cytotoxicity against human PC3 cells assessed as decrease in cell viability after 24 hrs by MTS assay; format: functional, cell-based; conditions: PC-3, 24 h
PC-3 [25] = assay: Effect on ERK 1/2 basal level in human PC3 cells assessed as downregulation of ERK 1/2 basal level at 48 hrs IC50 incubated for 48 hrs by Western immunoblot assay; format: ADME, cell-based; conditions: pc-3, 48 h
DU-145 [26] = assay: Effect of EGFR protein expression in human DU145 cell at 48 hrs IC50 treated for every week for 56 days by Western immunoblotting analysis; format: functional, cell-based
PC-3 [27] = assay: Effect on human PC3 cell growth assessed as no change in population doubling at 48 hr IC50 incubated for 48 hrs by cell counter based trypan blue exclusion assay; format: functional
DU-145 [28] = assay: Effect on human DU145 cell growth assessed as population doubling at 48 hr IC50 incubated for 96 hrs by cell counter based trypan blue exclusion assay (reference value: 2.89); format: functional
DU-145 [29] = assay: Cytotoxicity against human DU145 cells assessed as decrease in cell viability after 24 hrs by MTS assay; format: functional, cell-based; conditions: DU-145, 24 h
PC-3 [30] = assay: Induction of apoptosis in human PC3 cells assessed as increase in cleaved PARP1 level after 48 to 96 hrs by Western blot analysis; format: functional, cell-based
PC-3 [31] = assay: Effect of EGFR protein expression in human PC3 cell assessed as reduction in EGFR level at 48 hrs IC50 treated for every week for 56 days by Western immunoblotting analysis; format: functional
[32] = target: T1, Mitogen-activated protein kinase; ERK1/ERK2 (Homo sapiens); assay: Effect on ERK 1/2 phosphorylation at T202/Y204 residues in human PC3 cells assessed as decrease in ERK1/2 phosphorylation at T202/Y204 at 48 hrs IC50 incubated for 96 hrs by Western immunoblot assay; format: cell-based
DU-145 [33] = assay: Cytotoxicity against human DU145 cells assessed as decrease in cell viability after 48 hrs by MTS assay; format: functional, cell-based; conditions: DU-145, 48 h
DU-145 [34] = assay: Induction of apoptosis in human DU145 cells assessed as increase in cleaved PARP1 level after 48 to 96 hrs by Western blot analysis; format: functional, cell-based
PC-3 [35] = assay: Effect on telomeric C-circle DNA in human PC3 cell assessed as alternative telomere maintenance based increase in telomeric C-circle DNA level at 48 hrs 0.5 times IC50 treated for every week for 56 days [32P]-labeled (CCCTAA)3 probe incubated for 56 days followed by post incubation of 8 hrs in presence of Bacillus phage phi29 DNA polymerase and further heat inactivation at 65 degreeC for 20 mins by dot blot based CC assay; format: functional
DU-145 [36] = assay: Cytotoxicity against human DU145 cells assessed as decrease in cell viability after 72 hrs by MTS assay; format: functional, cell-based; conditions: DU-145, 72 h
Homo sapiens [37] = species on record: Homo sapiens; assay: Effect on telomere DNA in human DU145 cells assessed as telomere DNA length at 48 hrs 0.5 times IC50 treated for every week for 56 days by pulsed field electrophoresis/southern blot based densitometric analysis (reference value: 3.9 +/- 0.5 kb); format: cell-based
Quadruplex DNA [38] = assay: Binding affinity to synthetic 5'Dabcyl/3'-FAM-labeled telomeric 22 G4 quadruplex DNA folded DNA assessed as entropy change by isothermal titration calorimetry; format: nucleic-acid assay
Quadruplex DNA [39] = assay: Stabilization of synthetic 5'Dabcyl/3'-FAM-labeled EGFR 272 G4 quadruplex DNA assessed as change in melting temperature at 1 uM by Fluorescence melting assay; format: nucleic-acid assay
Quadruplex DNA [40] = assay: Binding affinity to synthetic 5'Dabcyl/3'-FAM-labeled EGFR 272 G4 quadruplex DNA folded DNA assessed as enthalpy change by isothermal titration calorimetry; format: nucleic-acid assay
PC-3 [41] = assay: Down regulation of EGFR protein expression in human PC3 cells at 48 hrs IC50 incubated for 48 hrs by Western immunoblot assay relative to control; format: functional
PC-3 [42] = assay: Effect on ERK 1/2 basel level in human PC3 cells assessed as downregulation of ERK 1/2 basal level at 48 hrs IC50 incubated for 96 hrs by Western immunoblot assay; format: ADME, cell-based; conditions: pc-3, 96 h
PC-3 [43] = assay: Down regulation of EGFR protein expression in human PC3 cells at 48 hrs IC50 incubated for 96 hrs by Western immunoblot assay relative to control; format: functional
DU-145 [44] = assay: Effect on ERK 2 basal level in human DU145 cells assessed as reduction in ERK 2 basal level at 48 hrs IC50 incubated for 48 hrs by Western immunoblot assay; format: ADME, cell-based; conditions: du-145, 48 h

## COc1ccc(CNCCCN2C(=O)c3ccc4c5c(ccc(c35)C2=O)C(=O)N(CCCNCc2ccc(OC)c(OC)c2OC)C4=O)c(OC)c1OC
Quadruplex DNA [1]
  Activity: Active
PC-3 [2]
  Activity: Active
DU-145 [3]
  Activity: 20%
Quadruplex DNA [4]
  deltaS: -46.4 cal/mol.K
DU-145 [5]
  Activity: Dose-dependent effect
PC-3 [6]
  Activity: Toxic
PC-3 [7]
  IC50: 970 nM
PC-3 [8]
  IC50: 630 nM
[9]
  Activity: inactive
Homo sapiens [10]
  Activity: 4.5 kilobase
DU-145 [11]
  Activity: Toxic
PC-3 [12]
  Activity: Active
[13]
  Activity: Active
Quadruplex DNA [14]
  Activity: Active
[15]
  Activity: Active
DU-145 [16]
  Activity: inactive
PC-3 [17]
  Activity: Dose-dependent effect
PC-3 [18]
  Activity: Active
Homo sapiens [19]
  Activity: Active
Quadruplex DNA [20]
  deltaH: -10.7 kcal/mol
[21]
  Activity: Active
DU-145 [22]
  Activity: Toxic
PC-3 [23]
  Activity: 0.51
PC-3 [24]
  IC50: 1360 nM
PC-3 [25]
  Activity: Toxic
DU-145 [26]
  Activity: inactive
PC-3 [27]
  Activity: Active
DU-145 [28]
  Activity: 2
DU-145 [29]
  IC50: 3460 nM
PC-3 [30]
  Activity: inactive
PC-3 [31]
  inhibition (INH): 100%
[32]
  Activity: inactive
DU-145 [33]
  IC50: 2260 nM
DU-145 [34]
  Activity: Active
PC-3 [35]
  Activity: Active
DU-145 [36]
  IC50: 1720 nM
Homo sapiens [37]
  Activity: 3.8 kilobase
Quadruplex DNA [38]
  deltaS: -10.1 cal/mol.K
Quadruplex DNA [39]
  Activity: Active
Quadruplex DNA [40]
  deltaH: -21.5 kcal/mol
PC-3 [41]
  Activity: 70 - 80%
PC-3 [42]
  Activity: Toxic

## COc1ccccc1CNCCCN1C(=O)c2ccc3c4c(ccc(c24)C1=O)C(=O)N(CCCNCCCCN)C3=O
Quadruplex DNA [1]
  Activity: Active
PC-3 [2]
  Activity: Active
DU-145 [3]
  Activity: 20%
Quadruplex DNA [4]
  deltaS: 18.9 cal/mol.K
DU-145 [5]
  Activity: Dose-dependent effect
PC-3 [6]
  Activity: Toxic
PC-3 [7]
  IC50: 2440 nM
PC-3 [8]
  IC50: 1460 nM
[9]
  Activity: inactive
Homo sapiens [10]
  Activity: 4.4 kilobase
DU-145 [11]
  Activity: Toxic
PC-3 [12]
  Activity: Active
[13]
  Activity: Active
Quadruplex DNA [14]
  Activity: Active
[15]
  Activity: Active
DU-145 [16]
  Activity: inactive
PC-3 [17]
  Activity: Dose-dependent effect
PC-3 [18]
  Activity: Active
Homo sapiens [19]
  Activity: Active
Quadruplex DNA [20]
  deltaH: -8 kcal/mol
[21]
  Activity: Active
DU-145 [22]
  Activity: Toxic
PC-3 [23]
  Activity: 0.97
PC-3 [24]
  IC50: 2800 nM
PC-3 [25]
  Activity: Toxic
DU-145 [26]
  Activity: inactive
PC-3 [27]
  Activity: Active
DU-145 [28]
  Activity: 1.85
DU-145 [29]
  IC50: 4760 nM
PC-3 [43]
  Activity: 50%
PC-3 [30]
  Activity: inactive
PC-3 [31]
  inhibition (INH): 100%
DU-145 [44]
  Activity: Toxic
[32]
  Activity: inactive
DU-145 [33]
  IC50: 2730 nM
DU-145 [34]
  Activity: Active
PC-3 [35]
  Activity: Active
DU-145 [36]
  IC50: 2050 nM
Homo sapiens [37]
  Activity: 3.8 kilobase
Quadruplex DNA [38]
  deltaS: -1.9 cal/mol.K
Quadruplex DNA [39]
  Activity: Active
Quadruplex DNA [40]
  deltaH: -1.1 kcal/mol
PC-3 [41]
  Activity: 70 - 80%
PC-3 [42]
  Activity: Toxic
